Source: patent publication US8252939B2, “Sulfoximinamide compounds for combating animal pests” (BASF SE, priority 2008, dated 2012)

Assays:
Format in all cases: in vivo
[1] = test system: Anthonomus grandis; test: Boll weevil (Anthonomus grandis) egg and larval mortality, microtiter plate insect diet; details: 120 h, egg and larval mortality after 5 days, read-out: mortality in comparison with untreated controls
Protocol: For evaluating control of boll weevil (Anthonomus grandis) the test unit consisted of 24-well-microtiter plates containing an insect diet and 20-30 A. grandis eggs.
The compounds were formulated using a solution containing 75% v/v water and 25% v/v DMSO. Different concentrations of formulated compounds were sprayed onto the insect diet at 20 μl, using a custom built micro atomizer, at two replications. After application, microtiter plates were incubated at about 23±1° C. and about 50±5% relative humidity for 5 days. Egg and larval mortality was then visually assessed.

[2] = test system: Myzus persicae; test: Green peach aphid (Myzus persicae) II, pepper plant leaf dip; details: foliar, 120 h, after 5 days, read-out: mortality in comparison with untreated controls
Text: The active compounds were formulated in 50:50 acetone:water (vol:vol) and 100 ppm Kinetica™ surfactant.
Pepper plants in the 2nd leaf-pair stage (variety ‘California Wonder’) were infested with approximately 40 laboratory-reared aphids by placing infested leaf sections on top of the test plants. The leaf sections were removed after 24 hr. The leaves of the intact plants were dipped into gradient solutions of the test compound and allowed to dry. Test plants were maintained under fluorescent light (24 hour photoperiod) at about 25° C. and about 20-40% relative humidity. Aphid mortality on the treated plants, relative to mortality on check plants, was determined after 5 days.

[3] = test system: Myzus persicae; test: Green peach aphid (Myzus persicae) I, systemic, artificial diet under membrane; details: 72 h, after 3 days, read-out: mortality in comparison with untreated controls
Text: For evaluating control of green peach aphid (Myzus persicae) through systemic means the test unit consisted of 96-well-microtiter plates containing liquid artificial diet under an artificial membrane.
The compounds were formulated using a solution containing 75% v/v water and 25% v/v DMSO. Different concentrations of formulated compounds were pipetted into the aphid diet, using a custom built pipetter, at two replications.
After application, 5-8 adult aphids were placed on the artificial membrane inside the microtiter plate wells. The aphids were then allowed to suck on the treated aphid diet and incubated at about 23±1° C. and about 50±5% relative humidity for 3 days. Aphid mortality and fecundity was then visually assessed.

[4] = test system: aphis craccivora; test: Cowpea aphid (aphis craccivora), sprayed potted cowpea plants; details: population reduction assessed after 24, 72, and 120 hours, read-out: mortality in comparison with untreated controls
Protocol: The active compound is dissolved at the desired concentration in a mixture of 1:1 (vol:vol) distilled water:acetone. The test solution is prepared at the day of use.
Potted cowpea plants colonized with approximately 100-150 aphids of various stages were sprayed after the pest population has been recorded. Population reduction was assessed after 24, 72, and 120 hours.

[5] = test system: dichromothrips corbetti; test: Orchid thrips (dichromothrips corbetti) floral-immersion; details: 96 h, after 4 days, read-out: mortality in comparison with untreated controls
Protocol: Dichromothrips corbetti adults used for bioassay were obtained from a colony maintained continuously under laboratory conditions. For testing purposes, the test compound was diluted to a concentration of 300 ppm (wt compound: vol diluent) in a 1:1 mixture of acetone:water (vol:vol), plus 0.01% vol/vol Kinetic® surfactant.
Thrips potency of each compound was evaluated by using a floral-immersion technique. Plastic petri dishes were used as test arenas. All petals of individual, intact orchid flowers were dipped into treatment solution and allowed to dry. Treated flowers were placed into individual petri dishes along with 10-15 adult thrips. The petri dishes were then covered with lids. All test arenas were held under continuous light and a temperature of about 28° C. for duration of the assay. After 4 days, the numbers of live thrips were counted on each flower, and along inner walls of each petri dish. The level of thrips mortality was extrapolated from pre-treatment thrips numbers.

[6] = test system: Nephotettix virescens; test: Rice green leafhopper (Nephotettix virescens), sprayed rice seedlings; details: after 72 hours, read-out: mortality in comparison with untreated controls
Protocol: Rice seedlings were cleaned and washed 24 hours before spraying. The active compounds were formulated in 50:50 acetone:water (vol:vol), and 0.1% vol/vol surfactant (EL 620) was added. Potted rice seedlings were sprayed with 5 ml test solution, air dried, placed in cages and inoculated with 10 adults. Treated rice plants were kept at about 28-29° C. and relative humidity of about 50-60%. Percent mortality was recorded after 72 hours.

[7] = test system: Megoura viciae; test: Vetch aphid (Megoura viciae) contact or systemic, broad bean leaf disks; details: foliar, 120 h, after 5 days, read-out: mortality in comparison with untreated controls
Protocol: For evaluating control of vetch aphid (Megoura viciae) through contact or systemic means the test unit consisted of 24-well-microtiter plates containing broad bean leaf disks.
The compounds were formulated using a solution containing 75% v/v water and 25% v/v DMSO. Different concentrations of formulated compounds were sprayed onto the leaf disks at 2.5 μl, using a custom built micro atomizer, at two replications. After application, the leaf disks were air-dried and 5-8 adult aphids placed on the leaf disks inside the microtiter plate wells. The aphids were then allowed to suck on the treated leaf disks and incubated at about 23±1° C. and about 50±5% relative humidity for 5 days. Aphid mortality and fecundity was then visually assessed.

[8] = test system: Aphis gossypii; test: Cotton aphid (Aphis gossypii) I, cotton cotyledon dip; details: 120 h, after 5 days, read-out: mortality in comparison with untreated controls
Text: The active compounds were formulated in 50:50 (vol:vol) acetone:water and 100 ppm Kinetica™ surfactant.
Cotton plants at the cotyledon stage (one plant per pot) were infested by placing a heavily infested leaf from the main colony on top of each cotyledon. The aphids were allowed to transfer to the host plant overnight, and the leaf used to transfer the aphids was removed. The cotyledons were dipped in the test solution and allowed to dry. After 5 days, mortality counts were made.

N#CN=S1(=O)CCCN1Cc1ccc(Cl)nc1 (centres unmarked) [compound 1]
> 75%: mortality at 2500 ppm [1] | mortality at 300 ppm [2] | mortality at 300 ppm [3] | mortality at 300 ppm [4] | mortality at 300 ppm [5] | mortality at 300 ppm [6] | mortality at 2500 ppm [7] | mortality at 300 ppm [8]

N#CN=S1(=O)CCCN1c1cnc(Cl)c(Cl)c1 (centres unmarked) [compound 12]
> 75%: mortality at 300 ppm [2] | mortality at 300 ppm [4] | mortality at 300 ppm [6] | mortality at 2500 ppm [7] | mortality at 300 ppm [8]

CS(=O)(=NC#N)NCc1ccc(Cl)nc1 (centres unmarked) [compound 90]
> 75%: mortality at 300 ppm [2] | mortality at 300 ppm [4] | mortality at 2500 ppm [7] | mortality at 300 ppm [8]
